Entries after “also recorded” stand apart in the source; their conditions may differ. Where two headings read alike, the source gives them in different places.
Columns and labels:
TPX [1] = target: T1, TPX (Sus scrofa, UniProt P09933); experiment: TPX-catalyzed iodide oxidation (triiodide formation), spectrophotometric; format: biochemical, hog; conditions: TPX, H2O2 and I-
T1 sequence (P09933 15-926): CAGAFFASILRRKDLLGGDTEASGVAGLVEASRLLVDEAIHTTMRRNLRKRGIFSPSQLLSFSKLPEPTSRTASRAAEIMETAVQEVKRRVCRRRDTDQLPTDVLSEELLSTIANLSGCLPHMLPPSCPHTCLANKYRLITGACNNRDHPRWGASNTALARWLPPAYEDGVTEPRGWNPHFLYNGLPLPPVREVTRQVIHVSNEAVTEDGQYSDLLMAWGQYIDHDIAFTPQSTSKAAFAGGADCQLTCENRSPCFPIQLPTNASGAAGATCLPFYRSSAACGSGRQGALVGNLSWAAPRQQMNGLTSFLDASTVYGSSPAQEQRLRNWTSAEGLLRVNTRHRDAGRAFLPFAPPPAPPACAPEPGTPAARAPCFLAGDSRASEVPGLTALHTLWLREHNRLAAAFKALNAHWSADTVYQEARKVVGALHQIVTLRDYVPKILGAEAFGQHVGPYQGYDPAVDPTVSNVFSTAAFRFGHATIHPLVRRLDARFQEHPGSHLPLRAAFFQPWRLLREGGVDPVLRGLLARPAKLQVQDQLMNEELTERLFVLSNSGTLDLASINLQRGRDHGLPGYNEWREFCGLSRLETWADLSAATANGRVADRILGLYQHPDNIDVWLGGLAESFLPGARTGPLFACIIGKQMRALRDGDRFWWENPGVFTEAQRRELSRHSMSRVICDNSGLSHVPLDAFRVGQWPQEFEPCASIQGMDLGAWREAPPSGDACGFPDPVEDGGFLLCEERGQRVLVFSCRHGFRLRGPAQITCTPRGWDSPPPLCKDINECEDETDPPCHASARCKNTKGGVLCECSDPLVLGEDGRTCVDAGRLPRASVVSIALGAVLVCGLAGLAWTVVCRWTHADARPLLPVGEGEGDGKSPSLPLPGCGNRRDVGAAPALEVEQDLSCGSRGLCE
Description: (§1) Materials used in the examples below were obtained from the following sources. Bovine LPX, bovine liver catalase, glucose oxidase, 30% hydrogen peroxide, glucose, guaiacol, ABTS and deuterium oxide were purchased from Sigma Chemical Company. Selenium dioxide, MBI ^13 CH3 I and PBA were purchased from Aldrich Chemical Company and PBA was purified as previously described by Fieset et al., Reagents for Organic Synthesis, Vol. I, pp.135-139, John Wiley and Sons, N.Y. (1967). LPX purity was checked by PAGE, as described by Doerge, D.R., et al. in, Biochem. Pharmacol., Vol.36, pp.972-974 (1986). TPX was purified from hog thyroids obtained from a local slaughterhouse by published procedures. Doerge & Takazowa, Chemical Research in Toxicology, Vol. 3, pp. 98-101 (1990). TPX purity was determined by LC and its concentration determined spectophotometrically. Hydroperoxide concentrations were determined by iodometric titration, as described by Kolthoff, et al., in "Quantitative Chemical Analysis", Macmillan, London, pp.842-860 (1969). MMBI, and BI were synthesized by published procedures as described by Doerge, D.R., Biochem, Vol. 27, pp. 3697-3700 (1988) and were recrystallized from aqueous ethanol. MeBI was purified by distillation and DMeBI^+ was synthesized and purified by recrystallization from ethyl acetate/methanol. 1-^13 C-MMBI was synthesized from ^13 CH3 I according to the procedure disclosed by Doerge, D.R., in, J. Lab. Comp. and Radiopharm., Vol.25, pp.985-990 (1988). PPHP and PPA were prepared, purified and analyzed as previously described by Doerge, Biochem, Vol.27, p.11 (1988). The methyl ester of 1-methyl-benzimidazole-2-sulfinic acid was prepared by addition of hydrogen peroxide (5 equivalents of a 10 M solution) to MMBI (0.1 M) in methanol. The products, MeBI and the ester, were obtained following preparative TLC on silica (Uniplate, Analtech Co., Newark, DL) using 5% methanol/chloroform as eluant. […]
1,3-diacetyl MBI (AczMBI) was synthesized according to the method published by Doerge et al., Syn. […] Varying quantities of Ac2 MBI were incubated with TPX, H2 O2, and I^-. […]

LPX and TPX [2] = experiment: suicide inhibition of peroxidases (summary statements); format: biochemical; conditions: for suicide inhibition: summary of own examples
TPX [3] = conditions: cited from earlier work
LPX [4] = conditions: cited from earlier work
TPX [5] = target: T1, TPX; experiment: TPX inactivation; format: biochemical, hog; conditions: presence of hydrogen peroxide
Description: (§2) Materials used in the examples below were obtained from the following sources. Bovine LPX, bovine liver catalase, glucose oxidase, 30% hydrogen peroxide, glucose, guaiacol, ABTS and deuterium oxide were purchased from Sigma Chemical Company. Selenium dioxide, MBI ^13 CH3 I and PBA were purchased from Aldrich Chemical Company and PBA was purified as previously described by Fieset et al., Reagents for Organic Synthesis, Vol. I, pp.135-139, John Wiley and Sons, N.Y. (1967). LPX purity was checked by PAGE, as described by Doerge, D.R., et al. in, Biochem. Pharmacol., Vol.36, pp.972-974 (1986). TPX was purified from hog thyroids obtained from a local slaughterhouse by published procedures. Doerge & Takazowa, Chemical Research in Toxicology, Vol. 3, pp. 98-101 (1990). TPX purity was determined by LC and its concentration determined spectophotometrically. Hydroperoxide concentrations were determined by iodometric titration, as described by Kolthoff, et al., in "Quantitative Chemical Analysis", Macmillan, London, pp.842-860 (1969). MMBI, and BI were synthesized by published procedures as described by Doerge, D.R., Biochem, Vol. 27, pp. 3697-3700 (1988) and were recrystallized from aqueous ethanol. MeBI was purified by distillation and DMeBI^+ was synthesized and purified by recrystallization from ethyl acetate/methanol. 1-^13 C-MMBI was synthesized from ^13 CH3 I according to the procedure disclosed by Doerge, D.R., in, J. Lab. Comp. and Radiopharm., Vol.25, pp.985-990 (1988). PPHP and PPA were prepared, purified and analyzed as previously described by Doerge, Biochem, Vol.27, p.11 (1988). The methyl ester of 1-methyl-benzimidazole-2-sulfinic acid was prepared by addition of hydrogen peroxide (5 equivalents of a 10 M solution) to MMBI (0.1 M) in methanol. The products, MeBI and the ester, were obtained following preparative TLC on silica (Uniplate, Analtech Co., Newark, DL) using 5% methanol/chloroform as eluant.
DMMBI was synthesized according to a published method. Duffin et al., J. Chem. Soc., Part II, pp.364-365 (1956). Samples including TPX, H2 O2, and I^- were incubated with and without DMMBI. Triiodide formation was observed spectrophotometrically with respect to time.

LPX [6] = target: T2, LPX (Bos taurus, UniProt P80025); experiment: LPX suicide inactivation kinetics; format: biochemical, bovine
T2 construct: purchased Sigma Chemical Company
Description: as §2
Inhibition of LPX activity by thiones was determined from the kinetics of iodide ion, guaiacol or ABTS oxidation assays conducted at 25° C. Kinetic parameters of suicide inactivation were determined as previously described. Doerge, Biochem. Vol.27, pp.3697-3700 (1988).

LPX [7] = target: T2, LPX; experiment: LPX-mediated covalent binding of labelled thiocarbamides to LPX; parameters: species or system bovine; conditions: +H2O2 vs. +H2O2 +KI; 14C- and 35S-labelled
Description: as §2
LPX-mediated covalent binding of ^14 C- and ^35 S-labelled thiocarbamides to LPX under iodide-dependent and -independent conditions was measured.

TPX [8] = target: T1, TPX; experiment: covalent binding to TPX in the presence of H2O2; parameters: species or system hog
Description: as §1, with “MeBI was purified by distillation and DMeBI^+ was synthesized and purified by recrystallization from ethyl acetate/methanol. 1-^13 C-MMBI was synthesized from ^13 CH3 I according to the procedure disclosed by Doerge, D.R., in, J. Lab. Comp. and Radiopharm., Vol.25, pp.985-990 (1988).” left out, “(1988).” for “(1988). The methyl ester of 1-methyl-benzimidazole-2-sulfinic acid was prepared by addition of hydrogen peroxide (5 equivalents of a 10 M solution) to MMBI (0.1 M) in methanol. The products, MeBI and the ester, were obtained following preparative TLC on silica (Uniplate, Analtech Co., Newark, DL) using 5% methanol/chloroform as eluant.”

[9] = chemical oxidation stoichiometry of thiones; format: physicochemical; conditions: for moles of oxidant required for total reaction: PBA, FIG. 4
Method: Oxidation stoichiometries were determined for the thione compounds MBI, MMBI and DMMBI by incubating the thiones with varying amounts of PBA (0-250μM). The rapid reaction (t1/2 <10 s at 25° C.) of benzimidazole-2-thiones with PBA in methanol provided a convenient method for determining oxidation stoichiometry.
(§3) Oxidation stoichiometries were determined spectrophoto, metrically, using a Hewlett Packard 8452A diode array spectrophotometer, by measuring thione concentration at 305 nm as a function of PBA concentration. Hydroperoxide content was determined iodometrically. Stoichiometries of substrate consumption/product formation were also determined by addition of limiting amounts of PBA to 100 μM MBI or MMBI in 50% methanol/pH 7 phosphate. The disappearance of thione and the production of BI, MeBI and bisulfite ion was determined after one hour at 25° C. The production of bisulfite ion was measured […]. The production of sulfate ion was determined by ion chromatography using a AS4A column (Dionex Co., Sunnyvale, CA) with a Dionex Gradient Pump Module and a Dionex CDM II conductivity detector equipped with an AMMS suppressor using 3 mM carbonate/bicarbonate buffer pH 10 as eluant at 2.0 ml/min. Reaction products were also monitored by ^1 H NMR performed at 300 MHz using a Nicolet NT300 or General Electric QE300 spectrometer DSS as a reference.

[10] = thione reaction with PBA in aqueous buffered methanol, product ratios; format: physicochemical; conditions: thione 100 μM, PBA 0-200 μM
Method: as §3
The reaction of MBI and MMBI with PBA was also examined in aqueous buffered methanol. Thione (100 μM) was incubated with varying concentrations of PBA (0-200 μM). Reactant and product quantities were determined by LC as described in example 1. The ratios of product formation to thione consumption were calculated, and are reported below in Table 1. The values are averages of two slope determinations, i.e., moles of product formed or reactant consumed vs. moles of oxidant added, each determined from at least five data points.

[11] = kinetics of thione oxygenation by hydrogen peroxide/TFA; format: physicochemical; conditions: thione 25 μM, H2O2 34 mM, TFA 163 mM in methanol, 25° C.; relative to DMMBI
Method: The kinetics of thione oxygenation were determined for MBI, MMBI and DMMBI. Oxygenation by hydrogen peroxide/TFA was measured spectrophotometrically (305 nm) at 25° C. by addition of thione (final concentration 25 μM) to hydrogen peroxide (34 mM) and TFA (163 mM) in methanol.

LPX and TPX [12] = conditions: currently used drugs, background; cited from earlier work
[13] = cited from earlier work

CC(=O)n1c(=S)n(C(C)=O)c2ccccc21 [Ac2 MBI, 1,3-diacetylbenzimidazole-2-thione]
effect on triiodide formation (TPX [1]): exhibits similar inhibition of triiodide formation as was observed with DMMBI | selectivity for iodide ion oxidation (LPX and TPX [2]; alternate substrate mechanism): block only reactions involving iodide ion oxidation | suicide inhibition (LPX and TPX [2]): not suicide inhibitors

S=C1NCCN1 [ETU, imidazolidine-2-thione]
inhibition of TPX-catalyzed iodination (TPX [3]): inhibits TPX- and LPX-catalyzed iodination reactions | inhibition of LPX-catalyzed iodination (LPX [4]): inhibits TPX- and LPX-catalyzed iodination reactions

Sc1nc2ccccc2[nH]1 [MBI, benzimidazole-2-thione]
TPX inactivation (TPX [5]): rapid, irreversible loss of LPX and TPX activity; also recorded: cause rapid, irreversible enzyme inactivation | partition ratio (LPX inactivation) (LPX [6]; 25° C.): approximately 3 | LPX inactivation / loss of LPX activity (LPX [6]; presence of hydrogen peroxide): rapid, irreversible loss of LPX and TPX activity; also recorded: cause rapid, irreversible enzyme inactivation | KI (inactivation) (LPX [6]; read-out: Ki (LPX inactivation); 25° C.): 0.1 nM | covalent binding to LPX (LPX [7]): become covalently bound to LPX | covalent binding to TPX (TPX [8]): bind covalently to LPX and TPX | suicide inhibition (LPX and TPX [2]): suicide inhibitors | moles of oxidant required for total reaction [9]: two | PBA/thione [10]: 1.89 | benzimidazole/thione [10]: 0.89 | bisulfite/thione [10]: 0.72 | relative rate of oxygenation [11]: 2.3

Cn1c(S)nc2ccccc21 [MMBI, 1-methylbenzimidazole-2-thione]
TPX inactivation (TPX [5]): rapid, irreversible loss of LPX and TPX activity; also recorded: cause rapid, irreversible enzyme inactivation | partition ratio (LPX inactivation) (LPX [6]; 25° C.): ~35 | KI (inactivation) (LPX [6]; 25° C.; read-out: Ki (LPX inactivation)): 274 nM | LPX inactivation / loss of LPX activity (LPX [6]; presence of hydrogen peroxide): rapid, irreversible loss of LPX and TPX activity; also recorded: cause rapid, irreversible enzyme inactivation | covalent binding to LPX (LPX [7]): become covalently bound to LPX | covalent binding to TPX (TPX [8]): bind covalently to LPX and TPX | suicide inhibition (LPX and TPX [2]): suicide inhibitors | moles of oxidant required for total reaction [9]: two | equivalents of hydroperoxide required per mole of thione ([9]; hydroperoxides): 2 equivalents | PBA/thione [10]: 1.98 | benzimidazole/thione [10]: 0.87 | bisulfite/thione [10]: 0.72 | relative rate of oxygenation [11]: 1.3

Cn1cc[nH]c1=S [MMI, 1-methylimidazole-2-thione]
suicide inhibition (LPX and TPX [12]): suicide inhibitors

CCOC(=O)n1ccn(C)c1=S [carbimazole, 1-carboxyethyl-3-methylimidazole-2-thione]
in vivo stability / conversion [13]: labile in vivo and is rapidly converted to methimazole

CCCc1cc(=O)[nH]c(=S)[nH]1 [propylthiouracil]
suicide inhibition (LPX and TPX [12]): suicide inhibitors
